Experimental data: the supplement of paper PMC10307832

Tests used:
Assay in all cases: relative viability (nuclei count vs DMSO), 5 days (fraction); higher = more cells survive
[1] = compound: CN1CCC(CNc2ccc3ncc(-c4cccc(OC(F)(F)F)c4)n3n2)CC1 [SGI-1776] + C[C@@H](Oc1cc(-c2cnn(C3CCNCC3)c2)cnc1N)c1c(Cl)ccc(F)c1Cl [Crizotinib] (partner 1 µM)
Outline: (§1)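 Five library-drug doses in √10 steps were combined with a fixed anchor-drug dose, or a single drug was given alone, by pin tool to lung cancer cell lines in 1536-well plates the day after seeding. Nuclei were stained and counted after 5 days. Relative viability is the nuclei count in treated wells over that in vehicle wells, taken as the median of duplicate plates.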

[2] = compound: CN1CCC(CNc2ccc3ncc(-c4cccc(OC(F)(F)F)c4)n3n2)CC1 [SGI-1776] + CC(C)C[C@H](NC(=O)[C@H](Cc1ccccc1)NC(=O)c1cnccn1)B(O)O [Bortezomib] (partner 0.002 µM)
Outline: as §1

[3] = compound: C1COCCN1C2=NC(=NC3=C2OC4=C3C=CC=N4)C5=CC(=CC=C5)NC(=O)C6=CN=C(C=C6)N + CC(C)C[C@H](NC(=O)[C@H](Cc1ccccc1)NC(=O)c1cnccn1)B(O)O [Bortezomib] (partner 0.002 µM)
Outline: as §1

[4] = compound: CN1CCC(CNc2ccc3ncc(-c4cccc(OC(F)(F)F)c4)n3n2)CC1 [SGI-1776] + Cc1nc(Nc2ncc(C(=O)Nc3c(C)cccc3Cl)s2)cc(N2CCN(CCO)CC2)n1 [Dasatinib] (partner 0.075 µM)
Outline: as §1

Row | Cell Line | relative viability ([1]; first compound 0.08 µM) | relative viability ([1]; first compound 0.8 µM) | relative viability ([1]; first compound 2.53 µM) | relative viability ([1]; first compound 8 µM) | relative viability ([2]; first compound 0.08 µM) | relative viability ([2]; first compound 0.8 µM) | relative viability ([2]; first compound 2.53 µM) | relative viability ([2]; first compound 8 µM) | relative viability ([3]; first compound 0.02 µM) | relative viability ([3]; first compound 0.06325 µM) | relative viability ([3]; first compound 0.2 µM) | relative viability ([3]; first compound 0.6325 µM) | relative viability ([3]; first compound 2 µM) | relative viability ([4]; first compound 0.08 µM) | relative viability ([4]; first compound 0.8 µM) | relative viability ([4]; first compound 2.53 µM) | relative viability ([4]; first compound 8 µM)
1 | 201T | 1.05 | 1.04 | 1.01 | 1.01 | 1.09 | 1.08 | 1.11 | 0.986 | 0.994 | 1.1 | 1.02 | 1.11 | 0.97 | 0.603 | 0.555 | 0.47 | 0.471
2 | NCI-H1755 | 0.863 | 0.898 | 0.89 | 0.808 | 0.932 | 0.953 | 0.971 | 0.774 | 0.947 | 1.08 | 0.904 | 0.918 | 0.613 | 0.454 | 0.437 | 0.351 | 0.287
3 | NCI-H596 | 1.08 | 1.06 | 0.945 | 0.854 | 0.924 | 1.08 | 0.95 | 0.973 | 0.9 | 1.21 | 0.963 | 1 | 0.684 | 0.571 | 0.528 | 0.51 | 0.441
4 | NCI-H1651 | 0.866 | 0.834 | 0.814 | 0.879 | 0.976 | 0.923 | 0.874 | 0.889 | 1.03 | 0.998 | 0.946 | 0.921 | 0.743 | 0.535 | 0.378 | 0.381 | 0.312
5 | NCI-H1437 | 0.869 | 0.9 | 1.02 | 0.952 | 0.587 | 0.525 | 0.536 | 0.352 | 0.428 | 0.733 | 0.483 | 0.474 | 0.185 | 0.335 | 0.427 | 0.298 | 0.242
6 | NCI-H1975 | 0.999 | 0.833 | 0.771 | 0.441 | 0.393 | 0.399 | 0.35 | 0.277 | 0.352 | 0.419 | 0.397 | 0.359 | 0.299 | 0.385 | 0.369 | 0.253 | 0.232
7 | BEN | 0.799 | 0.851 | 0.844 | 0.628 | 0.909 | 0.918 | 0.754 | 0.624 | 0.961 | 0.738 | 0.764 | 0.761 | 0.711 | 0.399 | 0.313 | 0.285 | 0.302
8 | NCI-H322M | 0.998 | 0.824 | 1.01 | 0.664 | 1.3 | 1.26 | 1.21 | 1.07 | 1.2 | 1.25 | 1.25 | 1.24 | 0.965 | 0.27 | 0.252 | 0.208 | 0.252
9 | HOP-62 | 0.998 | 0.854 | 0.839 | 0.969 | 0.862 | 0.914 | 0.74 | 0.632 | 0.743 | 0.848 | 0.897 | 0.967 | 0.291 | 0.724 | 0.679 | 0.531 | 0.597
10 | HCC-366 | 0.549 | 0.557 | 0.393 | 0.098 | 0.919 | 1.11 | 0.98 | 1.12 | 1.43 | 1.23 | 1.09 | 1.11 | 0.525 | 0.595 | 0.669 | 0.517 | 0.524
11 | NCI-H2405 | 0.857 | 0.809 | 0.854 | 0.642 | 1.04 | 0.997 | 0.896 | 0.924 | 0.995 | 1.02 | 0.973 | 0.947 | 0.902 | 0.225 | 0.195 | 0.178 | 0.166
12 | NCI-H1650 | 0.86 | 0.999 | 0.559 | 0.231 | 0.217 | 0.18 | 0.207 | 0.181 | 0.179 | 0.23 | 0.205 | 0.191 | 0.188 | 0.372 | 0.292 | 0.208 | 0.171
13 | NCI-H1355 | 1.1 | 1.03 | 1.01 | 0.935 | 1.2 | 1.24 | 1.24 | 1.03 | 1.24 | 1.25 | 1.27 | 1.21 | 1.06 | 0.778 | 0.722 | 0.52 | 0.604
14 | NCI-H1734 | 0.658 | 0.686 | 0.617 | 0.402 | 0.903 | 1.11 | 0.88 | 0.739 | 1.15 | 1.02 | 0.835 | 0.801 | 0.462 | 0.55 | 0.426 | 0.441 | 0.434
15 | LXF-289 | 0.803 | 0.805 | 0.813 | 0.786 | 1.03 | 1.04 | 1.02 | 0.973 | 1.1 | 1.11 | 0.996 | 0.997 | 0.409 | 0.222 | 0.224 | 0.148 | 0.161
16 | PC-3 [JPC-3] | 0.978 | 1.05 | 0.981 | 0.904 | 0.867 | 0.806 | 0.845 | 0.687 | 0.799 | 0.748 | 0.844 | 0.845 | 0.634 | 1.1 | 0.961 | 0.977 | 0.857
